“Also recorded” adds a separate entry of the source. Each block holds one molecule with its values, some of them ahead of it.
Key:
[1] = test system: Bcr-Abl positive CML cell line (K562); experiment: Cell count assay, viable cells by trypan blue exclusion; format: cell-based, human
Protocol: Cell count assays were performed by plating cells in the presence of regular growth medium with or without indicated amount of extract, FIG. 2(a), fraction, FIG. 2(b), purified compound, FIG. 2(e), and its sodium salt, FIG. 2 (d). Each day, viable cells were counted as assessed by exclusion of try pan blue, FIG. 2(e).

[2] = test system: normal human peripheral blood mononuclear cells (HPBMC); experiment: Cytokine production by HPBMC (ELISA); format: cell-based; conditions: for Concentration of Cytokines: IFN-γ / Concentration of Cytokines: IL-2 / Concentration of Cytokines: IL-6: HPBMC, 18 hrs
Source text: Supernatants were collected and quantitated for IL-2, IFN-γ, IL-6 by commercial ELISA.

[3] = test system: Bcr-Abl negative CML patients PBMC; experiment: Viability of CML patients' PBMC; format: cell-based, human; conditions: 67.5 nmole/10^5 cells, FIG. 2e; listed as NaChl
Protocol: (§1) FIG. 2. […] The flow diagram of purification is shown. […] Cell count assays were performed by plating cells in the presence of regular growth medium with or without indicated amount of extract, FIG. 2(a), fraction, FIG. 2(b), purified compound, FIG. […], and its sodium salt, FIG. 2 (d). Each day, viable cells were counted as assessed by exclusion of try pan blue, FIG. […]. Viability of PBMC obtained from three Ph^+ CML patients and one Ph^− CML patient after treatment with Na-Chl (67.5 nmole/10^5 cells), FIG. 2(f), Morphological changes of K562 cells after treatment with NaChl (67.5 nmole/10^5 cells) for 6 h (phase contrast micrographs, ×400).
(§2) Culture of Bcr-Abl positive CML cell line (K562), peripheral blood cells of CML patients, Bcr-Abl-negative ALL cell line (Molt-4) and peripheral blood cells of CML patients. Cell count assays were performed by plating cells in the presence of regular growth medium with or without indicated amount of extract, fraction, purified compound and its sodium salt. Each day, viable cells were counted as assessed by exclusion of trypan blue.

[4] = test system: Philadelphia chromosome (Bcr-Abl) positive CML patients PBMC; experiment: Viability of CML patients' PBMC; format: cell-based, human; conditions: 67.5 nmole/10^5 cells, FIG. 2e; listed as NaChl
Protocol: as §1, §2

K562 cells [5] = experiment: Morphology analysis by phase contrast microscopy; format: cell-based, human; conditions: 67.5 nmole/10^5 cells, 6 h, FIG. 2f
Protocol: as §1
Morphology analysis of Bcr-Abl positive CML cell line K562 by phase contrast microscopy. Cells were left untreated (NT) or treated with NaChl (Nachl; 67.5 nmole/10^5 cells) and viewed under phase contrast microscope (magnification ×400).

Molt-4 cells [6] = experiment: Apoptosis by flow cytometry (annexin V-FITC/PI); format: cell-based; conditions: 67.5 nmole/10^5 cells, 6 h, FIG. 3a
Protocol: (§3) FIG. 3(a). Cells were left untreated (NT) or incubated with NaChl (67.5 nmole/10^5 cells) for 6 h and processed for flow cytometry after staining with annexin V-FITC and PI. Viable cells are in the lower left quadrant. Apoptotic cells stained by annexin V are in the lower right quadrant. Late stage apoptotic cells stained by both annexin V and PI are in the upper right quadrant.
(§4) Measurement of apoptosis by flow cytometry. Cells were left untreated or treated with NaChl (67.5 nmole/10^5 cells) for 6 h. After washing, cells were stained with fluorescein isothyocyanate (FITC) conjugated Annexin V and propidium iodide (PI) and analysed in a flow cytometer (FACS Calibur, Beckton Dickinson, USA).

K562 cells [7] = experiment: Apoptosis by flow cytometry (annexin V-FITC/PI); format: cell-based, human; conditions: 67.5 nmole/10^5 cells, 6 h, FIG. 3a
Protocol: as §3, §4

[8] = test system: PBMC of Bcr-Abl negative CML patients; experiment: Apoptosis by flow cytometry (annexin V-FITC/PI); format: cell-based, human; conditions: 67.5 nmole/10^5 cells, 6 h, FIG. 3a
Protocol: as §3, §4

[9] = test system: PBMC of Bcr-Abl positive CML patients; experiment: Apoptosis by flow cytometry (annexin V-FITC/PI); format: cell-based, human; conditions: 67.5 nmole/10^5 cells, 6 h, FIG. 3a
Protocol: as §3, §4

normal PBMC = experiment: Apoptosis by flow cytometry (annexin V-FITC/PI); format: cell-based, human; conditions: 67.5 nmole/10^5 cells, 6 h, FIG. 3a
Protocol: as §3, §4

K562 cells [10] = experiment: DNA cell cycle analysis (PI staining); format: cell-based, human; conditions: 1 or 2 days culture, FIG. 3b
Protocol: (§5) FIG. 3(b). Treatment with NaChl results in early cell cycle arrest followed by apoptosis in Ph^+ cells. Cells were cultured in the presence or absence of NaChl. After 1 or 2 days in culture, cells were collected, permeabilized, and stained with PI for DNA content analysis. Gates were set to assess the percentages of dead (<2n DNA, M1). G0/G1 (2n DNA, M2), and S+G2+M (>2n DNA, M3) cells.
(§6) DNA cell cycle analysis. Cells were cultured with NaChl as described in example 5. After 1 or 2 days culture, cells were collected, permeabilized and stained with PI for DNA cell cycle analysis.

[11] = test system: PBMC of Bcr-Abl positive CML patients; experiment: DNA cell cycle analysis (PI staining); format: cell-based, human; conditions: 1 or 2 days culture, FIG. 3b
Protocol: as §5, §6

K562 cells [12] = experiment: Confocal microscopy, Annexin V staining; format: cell-based, human; conditions: K562, FIG. 3c
Protocol: (§7) FIG. 3(e). Fluorescence images of K562 and Molt-4 cells after treatment with NaChl followed by staining with annexin V-Allexa™ staining with annex in V are shown in left panels and bright filed phase contrast views are shown in right panels.
(§8) Confocal microscopy. K562 and Molt-4 cells were treated with NaChl followed by staining with Annexin-V -Allexa™ as described in example 5, and allowed to adhere onto poly-L-lysine-coated coverslips for 10 min. Representative fields of cells were analysed with a Leica TCS SP2 confocal laser scanning microscope (Heidelberg, Germany).

Molt-4 cells [13] = experiment: Confocal microscopy, Annexin V staining; format: cell-based; conditions: Molt-4, FIG. 3c
Protocol: as §7, §8

K562 cells [14] = experiment: Immunoblot detection of caspase 3 activation; format: cell-based, human; conditions: 24 h, FIG. 3d
Protocol: (§9) FIG. 3(d). Treatment with NaChl leads to activation of procaspase-3 in Ph+ cells. Cells were left untreated or treated with NaChl (T) for 24 h. Cells were harvested, lysed, equivalent amount of lysates were separated by SDS-PAGE and electrotransferred. The filters were probed with anti-caspase-3 that recognize both procaspase3 (32 Kda, upper band) and caspase-3 cleavage product (17 Kda, lower band).
(§10) Immunoblot assay. Cells were harvested, lysed, equivalent amount of lysates were separated by SDS-PAGE and electro-transferred. The filters were probed with anti-caspase-3 antibody (B.D. Pharmingen), anti-c-Abl antibody or anti-phospho-c-Abl antibody (Cell Signaling Technology).

[15] = test system: PBMC of Bcr-Abl (Ph) positive CML patients; experiment: Immunoblot detection of caspase 3 activation; format: cell-based, human; conditions: 24 h, FIG. 3d
Protocol: as §9, §10

[16] = test system: PBMC of Bcr-Abl negative CML patients; experiment: Immunoblot detection of caspase 3 activation; format: cell-based, human; conditions: 24 h, FIG. 3d
Protocol: as §9, §10

PBMC of normal donors = experiment: Immunoblot detection of caspase 3 activation; format: cell-based, human; conditions: 24 h, FIG. 3d
Protocol: as §9, §10

Molt-4 cells [17] = experiment: Immunoblot detection of caspase 3 activation; format: cell-based; conditions: 24 h, FIG. 3d
Protocol: as §9, §10

[18] = target: T1, Bcr-Abl protein tyrosine kinase (Homo sapiens, UniProt P00519); experiment: Abl phosphorylation status by flow cytometry and immunoblot; format: cell-based; conditions: 3 h, anti-phospho-c-Abl (Tyr245), FIG. 4a, 4b
T1 construct: triggering apoptosis of Bcr-Abl expressing CML cell line K562; BCR N-terminal portion (natural fusion partner, P11274); endogenous in cells; host or cells: Ph+ cells: K562 and PBMC of Bcr-Abl positive CML patients; the other entry of the earlier key: BCR (P11274, Breakpoint cluster region protein)
T1 sequence (P00519 28-1130 limits assumed): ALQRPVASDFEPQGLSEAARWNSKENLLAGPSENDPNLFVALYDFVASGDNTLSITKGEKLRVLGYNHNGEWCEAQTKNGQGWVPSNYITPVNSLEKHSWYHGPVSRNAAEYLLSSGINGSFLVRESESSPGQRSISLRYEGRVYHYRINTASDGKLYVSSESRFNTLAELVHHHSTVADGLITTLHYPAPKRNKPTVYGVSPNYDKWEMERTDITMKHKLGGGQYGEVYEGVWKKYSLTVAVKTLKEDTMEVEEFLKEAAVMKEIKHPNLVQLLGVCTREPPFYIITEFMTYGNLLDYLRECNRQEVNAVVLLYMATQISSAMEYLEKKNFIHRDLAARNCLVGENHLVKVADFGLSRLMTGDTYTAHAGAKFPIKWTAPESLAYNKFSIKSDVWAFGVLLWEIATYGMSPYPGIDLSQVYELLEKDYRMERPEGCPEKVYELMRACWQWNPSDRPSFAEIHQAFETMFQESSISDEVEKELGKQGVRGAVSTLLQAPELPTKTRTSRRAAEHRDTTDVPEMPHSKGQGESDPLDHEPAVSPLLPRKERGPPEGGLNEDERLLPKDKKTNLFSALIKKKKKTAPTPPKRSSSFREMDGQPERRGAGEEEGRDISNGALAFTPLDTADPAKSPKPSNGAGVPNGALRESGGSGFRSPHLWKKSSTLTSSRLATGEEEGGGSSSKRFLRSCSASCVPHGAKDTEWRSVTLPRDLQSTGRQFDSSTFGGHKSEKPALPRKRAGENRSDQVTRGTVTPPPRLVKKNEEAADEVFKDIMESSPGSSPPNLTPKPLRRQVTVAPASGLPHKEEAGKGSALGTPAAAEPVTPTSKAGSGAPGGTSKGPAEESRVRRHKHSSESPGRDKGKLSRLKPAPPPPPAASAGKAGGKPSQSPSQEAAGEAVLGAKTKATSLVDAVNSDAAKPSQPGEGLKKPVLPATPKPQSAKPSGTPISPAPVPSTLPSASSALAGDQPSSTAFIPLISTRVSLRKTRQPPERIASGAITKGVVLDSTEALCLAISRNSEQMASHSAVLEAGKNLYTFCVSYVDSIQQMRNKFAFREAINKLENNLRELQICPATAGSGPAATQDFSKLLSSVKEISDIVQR
Protocol: FIG. 4(a) Flow cytometric determination of Abl phosphorylation status. Cells were left untreated (NT) or incubated with NaChl (T) for 3 h, permeabilized and stained with rabbit anti-phospho-c-Abl (Tyr245) antibody. Dotted line, staining with normal rabbit IgG; solid line, staining with immune IgG.
(§11) FIG. 4(b) Immuno-blot-based determination of Abl phosphorylation status. Cells were harvested, lysed, equivalent amount Iysates were separated by SDS-P AGE and electrotransferred. The filters were probed with anti-phospho-c-Abl (Tyr 245) (upper panels) or anti-c-Abl antibody (middle panels).
as §10
(§12) Flow cytometric determination of Abl phosphorylation or Abl expression status. Cells were permeabelysed, stained with rabbit anti-phospho-c-Abl antibody, anti-c-Abl antibody or control rabbit antibody and analysed in a flow cytometer.

Abl protein = experiment: Abl expression status by flow cytometry and immunoblot; format: cell-based, human; conditions: anti-c-Abl antibody, FIG. 4b, 4c
Source text: as §11
FIG. 4(c) Flow cytometric determination of Abl expression status. Cells were permeabilized and stained with rabbit anti-c-Abl antibody. Dotted line, staining with normal rabbit IgG; solid line, staining with immune IgG.
as §10, §12

K562 xenografts = experiment: In vivo studies on K562 xenografts in nude mice; set-up: species or system mouse; conditions: 25-150 mg/kg intraperitoneally once a day for 10 days, FIG. 5
Protocol: FIG. 5. K562 cells embedded in Matrigel were staged in nude mice until tumors reached 200-300 mm^3. PBS (●), NaChl (25 mg/kg, □; 100 mg/kg, A; 150 mg/kg, ∘) were administered intraperitoneally once a day for ten days.
In vivo studies on K562 xenografts: K562 cells were suspended to 5×10^7 cells/ml in matrigel (BD Biosciences, Mountain View, Calif.; 1 volume of cells with 1 volume of cold Matrigel). Nude female mice 6 to 7 weeks of age were given injections of 0.2 ml of this suspension. Animals were left untreated until K562 xenografts reached 200-300 mm^3. […] Phosphate buffered saline (PBS, 0.2 ml per mouse) was used as a control. Animal studies were conducted under an approved institutional Animal Care and Use Committee protocol.

[19] = test system: STI571-sensitive K562 cells; experiment: Proliferation by [3H]thymidine uptake; format: cell-based, human; conditions: 48 h, graded concentrations, FIG. 6
Protocol: (§13) FIG. 6. […] K562 and K562-R cells were incubated with graded concentrations of ST1571 (A) or NaChl (B) for 48 h, proliferation was then determined by [^3H] thymidine uptake.
(§14) K562 and STI571-resistant K562 cells (K562-R) were incubated with graded concentrations of ST1571 or NaChl for 48 hours, proliferation was then determined by [^3H]thymidine uptake.

[20] = test system: STI571-resistant K562 cells (K562-R); experiment: Proliferation by [3H]thymidine uptake; format: cell-based, human; conditions: 48 h, graded concentrations, FIG. 6
Protocol: as §13
K562 cells were incubated with increasing concentrations of STI571 (received as gift in the form of Gleevec from a CML patient receiving Gleevec therapy), and surviving cells were collected by centrifugation and treated with 2-fold higher concentrations of STI571 (Donato, N. J. et al. Blood, 101:690-698, 2003).
as §14

[21] = PHA 2.5 μg/ml + LPS 1.0 μg/ml + Chl 25 μg/ml

IC50 ([1]; Homo sapiens, in vitro, K562 cells, FIGS. 2C & 2D): 27 µM
Structure (SMILES): O=C(/C=C/c1ccc(O)c(O)c1)O[C@@H]1C[C@](O)(C(=O)O)C[C@@H](O)[C@H]1O [chlorogenic acid]
killing of K562 cells ([1]; cell count, FIG. 2a-2c): higher killing activity of K562 cells compare to crude extract or fraction E
Concentration of Cytokines: IFN-γ ([2]; Chl 25 μg/ml alone): 19.4 pg/mL
Concentration of Cytokines: IL-2 ([2]; Chl 25 μg/ml alone): 6.8 pg/mL
Concentration of Cytokines: IL-6 ([2]; Chl 25 μg/ml alone): 781.9 pg/mL
Concentration of Cytokines: IFN-γ [2, 21]: 13.8 pg/mL
Concentration of Cytokines: IL-2 [2, 21]: 2.5 pg/mL
Concentration of Cytokines: IL-6 [2, 21]: 1899.0 pg/mL
production of IL-2, IFN-γ, and IL-6 by HPBMC after stimulation with PHA and LPS ([2]; PHA and LPS stimulation): significantly inhibited
spontaneous production of IL-2, IFN-γ, and IL-6 by HPBMC ([2]; no stimulation): inhibits

phosphorylation of Bcr-Abl protein tyrosine kinase [18]: inhibits phosphorilation
Structure (SMILES): O=C(/C=C/c1ccc(O)c(O)c1)O[C@@H]1C[C@](O)(C(=O)[O-])C[C@@H](O)[C@H]1O.[Na+] [sodium chlorogenate]
effect on Bcr-Abl negative CML patients PBMC [3]: no effect; also recorded: without any effects
killing of Bcr-Abl positive CML patients PBMC [4]: active in killing; also recorded: destroys
morphological changes in K562 cells (K562 cells [5]): induces morphological changes (nuclear condensation)
apoptosis (Molt-4 cells [6]): did not induce apoptosis
apoptosis (K562 cells [7]): increase in apoptosis
apoptosis [8]: did not induce apoptosis
apoptosis [9]: increase in apoptosis
apoptosis (normal PBMC): remain virtually unaffected
apoptosis (normal PBMC; listed as NaChl): did not induce apoptosis
DNA cell cycle (K562 cells [10]): induces cell cycle arrest followed by breakdown of DNA
DNA cell cycle [11]: induces cell cycle arrest followed by breakdown of DNA
Annexin V staining (confocal) (K562 cells [12]): positive Annexin V staining
Annexin V staining (confocal) (Molt-4 cells [13]): not in Molt-4 cells
apoptosis by caspase 3 activation (K562 cells [14]): Apoptosis in K562 cells
apoptosis by caspase 3 activation [15]: Apoptosis
apoptosis by caspase 3 activation [16]: not
apoptosis by caspase 3 activation (PBMC of normal donors): not
apoptosis by caspase 3 activation (Molt-4 cells [17]): not in Molt-4 cells
expression of Abl protein level (Abl protein): without affecting the expression
tumor growth of K562 xenografts (K562 xenografts): reduced the tumor growth in a dose dependent manner
apoptosis/proliferation of STI571-sensitive K562 cells [19]: induces apoptosis
apoptosis/proliferation of STI571-resistant K562 cells [20]: induces apoptosis
production of interferon gamma ([2]; statement referring to Table II): significantly inhibits

Source: US20070161704A1, “Pharmaceutical composition useful for treating chronic myeloid leukemia” (COUNCIL OF SCIENTIFIC AND INDUSTRIAL RESEARCH, priority 2002, published 2007)
